Assay results taken from PubChem BioAssay AID330 (DTP/NCI, 2004).
Where “and” joins values, the source holds several entries; their conditions need not be identical. Equal values may be shown once. Inconclusive results and toxic doses are left out.

Tested on: P388 leukemia ip, CD2F1 mice, survival T/C
Assay: NCI In Vivo Anticancer Drug Screen. Data for tumor model P388 Leukemia (intraperitoneal) in CD2F1 (CDF1) mice
Conditions: endpoint: median survival time, higher = longer survival
In short: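 Mice carrying the transplanted tumor received test compound or vehicle. Survival was recorded in each group, and the value is the treated-group measurement divided by that of the vehicle-treated control group.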

[1] = dose: 50.0 mg/kg/injection, schedule: Q01DX005 (ip), vehicle: saline with Tween-80
[2] = dose: 100.0 mg/kg/injection, schedule: Q01DX005 (ip), vehicle: saline with Tween-80
[3] = dose: 200.0 mg/kg/injection, schedule: Q01DX005 (ip), vehicle: saline with Tween-80
[4] = dose: 60.0 mg/kg/injection, schedule: Q01DX005 (ip), vehicle: saline with Tween-80
[5] = dose: 120.0 mg/kg/injection, schedule: Q01DX005 (ip), vehicle: saline with Tween-80
[6] = dose: 240.0 mg/kg/injection, schedule: Q01DX005 (ip), vehicle: saline with Tween-80
[7] = dose: 50.0 mg/kg/injection, schedule: Q01DX009 (ip), vehicle: saline with Tween-80
[8] = dose: 100.0 mg/kg/injection, schedule: Q01DX009 (ip), vehicle: saline with Tween-80
[9] = dose: 200.0 mg/kg/injection, schedule: Q01DX009 (ip), vehicle: saline with Tween-80
[10] = dose: 12.5 mg/kg/injection, schedule: Q01DX009 (ip), vehicle: saline
[11] = dose: 25.0 mg/kg/injection, schedule: Q01DX009 (ip), vehicle: saline
[12] = dose: 50.0 mg/kg/injection, schedule: Q01DX009 (ip), vehicle: saline
[13] = dose: 100.0 mg/kg/injection, schedule: Q01DX009 (ip), vehicle: saline
[14] = dose: 15.0 mg/kg/injection, schedule: Q01DX005 (ip), vehicle: saline
[15] = dose: 30.0 mg/kg/injection, schedule: Q01DX005 (ip), vehicle: saline
[16] = dose: 60.0 mg/kg/injection, schedule: Q01DX005 (ip), vehicle: saline
[17] = dose: 400.0 mg/kg/injection, schedule: Q01DX009 (ip), vehicle: saline with Tween-80
[18] = dose: 50.0 mg/kg/injection, schedule: Q01DX009 (ip), vehicle: Klucel (hydroxypropylcellulose) (HPC)
[19] = dose: 100.0 mg/kg/injection, schedule: Q01DX009 (ip), vehicle: Klucel (hydroxypropylcellulose) (HPC)
[20] = dose: 200.0 mg/kg/injection, schedule: Q01DX009 (ip), vehicle: saline

In the case of `O=C(CCl)c1ccc(Cl)c(Cl)c1`, the T/C (dose: 100.0 mg/kg/injection, schedule: Q01DX001 (ip), vehicle: other) is reported as 100 % of control and the T/C (dose: 200.0 mg/kg/injection, schedule: Q01DX001 (ip), vehicle: other) is reported as 100 % of control.
`CC(=O)N1CN=C2Sc3ccccc3N2C1` was tested, and the T/C (dose: 15.0 mg/kg/injection, schedule: Q01DX005 (ip), vehicle: Klucel (hydroxypropylcellulose) (HPC)) was 103 % of control, the T/C (dose: 30.0 mg/kg/injection, schedule: Q01DX005 (ip), vehicle: Klucel (hydroxypropylcellulose) (HPC)) was 105 % of control and the T/C (dose: 60.0 mg/kg/injection, schedule: Q01DX005 (ip), vehicle: Klucel (hydroxypropylcellulose) (HPC)) was 100 % of control and 104 % of control.
In the case of `CC(=O)N1NC(=O)c2c([nH]c3ccccc23)C1c1ccccc1` (configuration not stated), the T/C (dose: 100.0 mg/kg/injection, schedule: Q04DX002 (ip), vehicle: Klucel (hydroxypropylcellulose) (HPC)) is reported as 101 % of control, the T/C (dose: 200.0 mg/kg/injection, schedule: Q04DX002 (ip), vehicle: Klucel (hydroxypropylcellulose) (HPC)) is reported as 106 % of control and the T/C (dose: 400.0 mg/kg/injection, schedule: Q04DX002 (ip), vehicle: Klucel (hydroxypropylcellulose) (HPC)) is reported as 101 % of control.
`c1cnc2c(OCCOCCOCCOCCOc3cccc4cccnc34)cccc2c1` was tested, and the T/C [1] was 90 % of control, the T/C [2] was 90 % of control and the T/C [3] was 98 % of control.
`CCn1cc(C(=O)O)c(=O)c2cc(F)c(-n3cccc3)cc21` was tested, and the T/C [4] was 101 % of control, the T/C [5] was 99 % of control and the T/C [6] was 98 % of control.
For `COC(CN1C(=O)CSC1=S)OC`, the T/C [7] was 114 % of control, the T/C [8] was 117 % of control and the T/C [9] was 117 % of control.
In the case of `CCCCCCCCCCCCCCCc1cccc(OC)c1C(=O)O`, the T/C (dose: 7.5 mg/kg/injection, schedule: Q01DX009 (ip), vehicle: saline with Tween-80) is reported as 107 % of control, the T/C (dose: 15.0 mg/kg/injection, schedule: Q01DX009 (ip), vehicle: saline with Tween-80) is reported as 113 % of control and the T/C (dose: 30.0 mg/kg/injection, schedule: Q01DX009 (ip), vehicle: saline with Tween-80) is reported as 116 % of control.
In the case of `CC(Br)C(=O)c1ccc(OCc2ccccc2)cc1` (configuration not stated), the T/C [7] is reported as 110 % of control, the T/C [8] is reported as 124 % of control and the T/C [9] is reported as 121 % of control.
For `O=C(O)C(O)C(O)C(=O)O.[Bi].[Na+]` (configuration not stated), the T/C [10] was 113 % of control, the T/C [11] was 115 % of control and the T/C [12] was 87 % of control and 98 % of control. For the same molecule, the T/C [13] was 93 % of control.
`Cc1ccc(C)c(C(=O)CCN(C)C)c1` was tested, and the T/C [14] was 106 % of control, the T/C [15] was 94 % of control and the T/C [16] was 99 % of control and 101 % of control.
For `CCC[CH2][Sn]([F])([F])[CH2]CCC`, the T/C (dose: 6.25 mg/kg/injection, schedule: Q04DX003 (ip), vehicle: saline) was 107 % of control, the T/C (dose: 12.5 mg/kg/injection, schedule: Q04DX003 (ip), vehicle: saline) was 114 % of control and the T/C (dose: 25.0 mg/kg/injection, schedule: Q04DX003 (ip), vehicle: saline) was 118 % of control.
`O=C1C(CBr)(CBr)CCC12CN=C(Br)C2` (configuration not stated) was tested, and the T/C [1] was 100 % of control, the T/C [2] was 98 % of control and the T/C [3] was 100 % of control.
For `CC1=C2CCC3(C)C(=C2OC1=O)C(C)=C(Cl)C(Br)C3Br` (configuration not stated), the T/C (dose: 50.0 mg/kg/injection, schedule: Q01DX005 (ip), vehicle: Klucel (hydroxypropylcellulose) (HPC)) was 102 % of control, the T/C (dose: 100.0 mg/kg/injection, schedule: Q01DX005 (ip), vehicle: Klucel (hydroxypropylcellulose) (HPC)) was 111 % of control and the T/C (dose: 200.0 mg/kg/injection, schedule: Q01DX005 (ip), vehicle: Klucel (hydroxypropylcellulose) (HPC)) was 118 % of control.
`c1n[nH]c2c1CCCC2` was tested, and the T/C [10] was 96 % of control, the T/C [11] was 105 % of control and the T/C [12] was 91 % of control. The T/C [13] was 104 % of control.
`CC(C)(C)c1cc(C(C)(C)c2ccccc2)cc(Cc2cc(C(C)(C)c3ccccc3)cc(C(C)(C)C)c2O)c1O` was tested, and the T/C [7] was 92 % of control, the T/C [8] was 94 % of control and the T/C [9] was 93 % of control. The T/C [17] was 89 % of control.
`ClSC(c1ccccc1)(c1ccccc1)c1ccccc1` was tested, and the T/C [1] was 103 % of control, the T/C [2] was 118 % of control and the T/C [3] was 94 % of control.
For `S=C1NCC[Se]1`, the T/C (dose: 6.25 mg/kg/injection, schedule: Q01DX009 (ip), vehicle: DMSO) was 103 % of control and the T/C (dose: 12.5 mg/kg/injection, schedule: Q01DX009 (ip), vehicle: DMSO) was 105 % of control.
For `CCCC[S][Sn]([CH2]CCC)([CH2]CCC)[S]CCCC`, the T/C (dose: 0.75 mg/kg/injection, schedule: Q01DX009 (ip), vehicle: saline with Tween-80) was 121 % of control and the T/C (dose: 3.0 mg/kg/injection, schedule: Q01DX009 (ip), vehicle: saline with Tween-80) was 152 % of control.
`C=CCNC(=S)/N=C1\N=S(C)(=O)c2ccccc21` (configuration not stated) was tested, and the T/C [18] was 96 % of control, the T/C [19] was 94 % of control and the T/C (dose: 200.0 mg/kg/injection, schedule: Q01DX009 (ip), vehicle: Klucel (hydroxypropylcellulose) (HPC)) was 102 % of control.
With `CCOC(=O)CC(CS(=O)CP(=O)(OCC)OCC)C(=O)OCC` (configuration not stated) the T/C (dose: 7.5 mg/kg/injection, schedule: Q01DX005 (ip), vehicle: saline with Tween-80) was 91 % of control, the T/C (dose: 15.0 mg/kg/injection, schedule: Q01DX005 (ip), vehicle: saline with Tween-80) was 92 % of control and the T/C (dose: 30.0 mg/kg/injection, schedule: Q01DX005 (ip), vehicle: saline with Tween-80) was 102 % of control. For the same molecule, the T/C [4] was 102 % of control and 110 % of control.
In the case of `Cc1cccc(C(=O)N(C)C(c2ccco2)P(=O)(c2ccccc2)c2ccccc2)c1` (configuration not stated), the T/C [7] is reported as 107 % of control, the T/C [8] is reported as 101 % of control and the T/C [9] is reported as 90 % of control. For the same molecule, the T/C [17] was 86 % of control.
For `CCOP(=O)(OCC)Oc1c(OC)cc(C2OCCO2)cc1OC`, the T/C [12] was 103 % of control, the T/C [13] was 103 % of control and the T/C [20] was 117 % of control.
For `CCCCSc1nc2ccc(N=Cc3ccccc3O)cc2s1`, the T/C [18] was 103 % of control and the T/C [19] was 99 % of control.
For `NC(=S)c1ccc(/C=N/c2nc3ccccc3s2)cc1`, the T/C (dose: 25.0 mg/kg/injection, schedule: Q01DX001 (ip), vehicle: Klucel (hydroxypropylcellulose) (HPC)) was 103 % of control, the T/C (dose: 50.0 mg/kg/injection, schedule: Q01DX001 (ip), vehicle: Klucel (hydroxypropylcellulose) (HPC)) was 97 % of control and the T/C (dose: 100.0 mg/kg/injection, schedule: Q01DX001 (ip), vehicle: Klucel (hydroxypropylcellulose) (HPC)) was 96 % of control and 97 % of control. The T/C (dose: 200.0 mg/kg/injection, schedule: Q01DX001 (ip), vehicle: Klucel (hydroxypropylcellulose) (HPC)) was 97 % of control and the T/C (dose: 400.0 mg/kg/injection, schedule: Q01DX001 (ip), vehicle: Klucel (hydroxypropylcellulose) (HPC)) was 97 % of control.
With `O=C1C=C2COC(O)CC2CC1` (configuration not stated) the T/C (dose: 100.0 mg/kg/injection, schedule: Q04DX003 (ip), vehicle: Klucel (hydroxypropylcellulose) (HPC)) was 104 % of control, the T/C (dose: 200.0 mg/kg/injection, schedule: Q04DX003 (ip), vehicle: Klucel (hydroxypropylcellulose) (HPC)) was 105 % of control and the T/C (dose: 400.0 mg/kg/injection, schedule: Q04DX003 (ip), vehicle: Klucel (hydroxypropylcellulose) (HPC)) was 111 % of control.
In the case of `CN(C)c1ccc(/C=N/NC(=O)c2ccccc2N)cc1`, the T/C [4] is reported as 103 % of control, the T/C [5] is reported as 100 % of control and the T/C [6] is reported as 98 % of control.
`O=C(O)Cc1ccc([N+](=O)[O-])cc1[N+](=O)[O-]` was tested, and the T/C [10] was 100 % of control, the T/C [11] was 92 % of control and the T/C [12] was 100 % of control. The T/C [13] was 91 % of control.
In the case of `CCOC(=O)NN(CC(=O)OCc1ccccc1)N=O`, the T/C (dose: 12.5 mg/kg/injection, schedule: Q01DX009 (ip), vehicle: other) is reported as 109 % of control, the T/C (dose: 25.0 mg/kg/injection, schedule: Q01DX009 (ip), vehicle: other) is reported as 94 % of control and the T/C (dose: 50.0 mg/kg/injection, schedule: Q01DX009 (ip), vehicle: other) is reported as 100 % of control. For the same molecule, the T/C (dose: 100.0 mg/kg/injection, schedule: Q01DX009 (ip), vehicle: other) was 102 % of control and the T/C (dose: 200.0 mg/kg/injection, schedule: Q01DX009 (ip), vehicle: other) was 98 % of control.
`O=C1CCCCCCCC(=O)Nc2ccc3nc4ccccc4c(c3c2)SCCCCCCCCCSc2c3ccccc3nc3ccc(cc23)N1` was tested, and the T/C [4] was 88 % of control, the T/C [5] was 99 % of control and the T/C [6] was 96 % of control.
For `CC(C)(C)c1ccc2c(O)c(C(C)(C)C)cc(-c3ccccc3)c2c1`, the T/C [12] was 107 % of control, the T/C [13] was 110 % of control and the T/C [20] was 106 % of control.
`CCOC(=O)Nc1ccc2nc(Sc3ccc(Cl)cc3)sc2c1` was tested, and the T/C [7] was 103 % of control, the T/C [8] was 100 % of control and the T/C [9] was 106 % of control.
`O=S(=O)(F)c1ccc(O)cc1` was tested, and the T/C [14] was 96 % of control, the T/C [15] was 99 % of control and the T/C [16] was 99 % of control and 97 % of control.
